Test results as given in ChEMBL document CHEMBL1201862, “PubChem BioAssay data set” (2004).
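Where inhibition never reached the appropriate level, the endpoint shown equals the highest concentration tested. Otherwise, values were interpolated linearly from a five-concentration, 48-hour dose response in 96-well plates. Abbreviation: GI50, concentration required for 50% inhibition of growth.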 The source made the active and inactive calls. Rule as the data show it: active = GI50 up to about 1.1 µM and inactive = higher.

Assays:
Assay in all cases: NCI anticancer screen, dose series, 48 h
BT-549 = test system: BT-549
CCRF-CEM = test system: CCRF-CEM
OVCAR-4 = test system: OVCAR-4
DU-145 = test system: DU-145
MOLT-4 = test system: MOLT-4
A549 = test system: A549
SW-620 = test system: SW-620
U-251 = test system: U-251
OVCAR-5 = test system: OVCAR-5
NCI/ADR-RES = test system: NCI/ADR-RES
SK-MEL-28 = test system: SK-MEL-28
RXF 393 = test system: RXF 393
SK-MEL-5 = test system: SK-MEL-5
RPMI-8226 = test system: RPMI-8226
786-0 = test system: 786-0
KM12 = test system: KM12
T47D = test system: T47D
SK-OV-3 = test system: SK-OV-3
HOP-62 = test system: HOP-62
UACC-62 = test system: UACC-62
Malme-3M = test system: Malme-3M
PC-3 = test system: PC-3
SNB-19 = test system: SNB-19
IGROV-1 = test system: IGROV-1
CAKI-1 = test system: CAKI-1
NCI-H23 = test system: NCI-H23
UACC-257 = test system: UACC-257
COLO 205 = test system: COLO 205
TK-10 = test system: TK-10
M14 = test system: M14
SN12C = test system: SN12C
MDA-MB-231 = test system: MDA-MB-231
HCT-116 = test system: HCT-116
OVCAR-3 = test system: OVCAR-3
SF-268 = test system: SF-268
NCI-H522 = test system: NCI-H522
HT-29 = test system: HT-29
SR = test system: SR
SF-295 = test system: SF-295
MDA-MB-435 = test system: MDA-MB-435
MCF7 = test system: MCF7
Hs-578T = test system: Hs-578T
HCC 2998 = test system: HCC 2998
HCT-15 = test system: HCT-15
SNB-75 = test system: SNB-75
OVCAR-8 = test system: OVCAR-8
A498 = test system: A498
K562 = test system: K562
NCI-H226 = test system: NCI-H226
EKVX = test system: EKVX
MDA-N = test system: MDA-N
ACHN = test system: ACHN
SK-MEL-2 = test system: SK-MEL-2
UO-31 = test system: UO-31

For CN(C)C(=C1c2cc([N+](=O)[O-])ccc2-c2ccc([N+](=O)[O-])cc21)N(C)C, the GI50 (BT-549) was > 100 µM (inactive), the GI50 (CCRF-CEM) was > 100 µM (inactive) and the GI50 (OVCAR-4) was > 100 µM (inactive). For the same molecule, the GI50 (DU-145) was > 100 µM (inactive), the GI50 (MOLT-4) was 5.24 µM (inactive) and the GI50 (A549) was > 100 µM (inactive). The GI50 (SW-620) was > 100 µM (inactive), the GI50 (U-251) was > 100 µM (inactive) and the GI50 (OVCAR-5) was > 100 µM (inactive). For the same molecule, the GI50 (NCI/ADR-RES) was > 100 µM (inactive), the GI50 (SK-MEL-28) was > 100 µM (inactive) and the GI50 (RXF 393) was > 100 µM (inactive). The GI50 (SK-MEL-5) was > 100 µM (inactive), the GI50 (RPMI-8226) was 3.32 µM (inactive) and the GI50 (786-0) was > 100 µM (inactive). For the same molecule, the GI50 (KM12) was > 100 µM (inactive), the GI50 (T47D) was 4.11 µM (inactive) and the GI50 (SK-OV-3) was > 100 µM (inactive). For the same molecule, the GI50 (HOP-62) was > 100 µM (inactive), the GI50 (UACC-62) was > 100 µM (inactive) and the GI50 (Malme-3M) was > 100 µM (inactive). For the same molecule, the GI50 (PC-3) was > 100 µM (inactive), the GI50 (SNB-19) was > 100 µM (inactive) and the GI50 (IGROV-1) was > 100 µM (inactive). The GI50 (CAKI-1) was 5.93 µM (inactive), the GI50 (NCI-H23) was > 100 µM (inactive) and the GI50 (UACC-257) was > 100 µM (inactive). The GI50 (COLO 205) was > 100 µM (inactive), the GI50 (TK-10) was > 100 µM (inactive) and the GI50 (M14) was > 100 µM (inactive). For the same molecule, the GI50 (SN12C) was > 100 µM (inactive), the GI50 (MDA-MB-231) was > 100 µM (inactive) and the GI50 (HCT-116) was > 100 µM (inactive). For the same molecule, the GI50 (OVCAR-3) was > 100 µM (inactive), the GI50 (SF-268) was > 100 µM (inactive) and the GI50 (NCI-H522) was > 100 µM (inactive). For the same molecule, the GI50 (HT-29) was > 100 µM (inactive), the GI50 (SR) was 2.37 µM (inactive) and the GI50 (SF-295) was > 100 µM (inactive). The GI50 (MDA-MB-435) was > 100 µM (inactive), the GI50 (MCF7) was > 100 µM (inactive) and the GI50 (Hs-578T) was > 100 µM (inactive). For the same molecule, the GI50 (HCC 2998) was > 100 µM (inactive), the GI50 (HCT-15) was > 100 µM and the GI50 (SNB-75) was > 100 µM (inactive). The GI50 (OVCAR-8) was > 100 µM (inactive), the GI50 (A498) was > 100 µM (inactive) and the GI50 (K562) was > 100 µM (inactive). The GI50 (NCI-H226) was > 100 µM (inactive), the GI50 (EKVX) was > 100 µM (inactive) and the GI50 (MDA-N) was > 100 µM (inactive). For the same molecule, the GI50 (ACHN) was > 100 µM (inactive), the GI50 (SK-MEL-2) was > 100 µM (inactive) and the GI50 (UO-31) was 56.2 µM (inactive).
